Here are results for one substance from publication PMC10016038, “Enhanced Endosomal Signaling and Desensitization of GLP-1R vs GIPR in Pancreatic Beta Cells” (Endocrinology, 2023).

For experiment [1], the system named is SNAP-tagged human GIPR. The experiment can be described thus: High-content microscopy internalization, SNAP-GIPR. Type of experiment: cell-based. Particulars: BG-S-S-649, 30 min, 37 °C, respective endogenous agonists, n = 5. How it is done: (§1) The assay was performed as previously described ([21]). The INS-1 832/3 SNAP-GLP-1R or SNAP-GIPR cells were seeded into poly-D-lysine-coated, black 96-well plates. On the day of the assay, labeling was performed with BG-S-S-649 (1 µM), a surface-labeling SNAP-tag probe that can be released on application of reducing agents such as Mesna. After washing, treatments were applied for 30 minutes at 37 °C in complete medium. Ligand was removed and cells washed with cold HBSS and placed on ice for subsequent steps. Mesna (100 mM in alkaline TNE buffer, pH 8.6) or alkaline TNE buffer without Mesna was applied for 5 minutes, and then washed with HBSS. Cells were imaged by widefield microscopy, with both epifluorescence and transmitted phase contrast images acquired. On imaging completion, HBSS was removed and replaced with fresh complete medium, and receptor was allowed to recycle for 60 minutes at 37 °C, followed by a second Mesna application to remove any receptor that had recycled to the plasma membrane, with the plate re-imaged as above. Internalized receptor at each time point was determined from cell-containing regions as determined from the phase contrast image using […] ([22]) and used to determine internalization and recycling parameters as previously described ([21]). […]

The test system of experiment [2] is SNAP-tagged human GIPR. Nature of the experiment: High-content microscopy recycling, SNAP-GIPR. The format is cell-based. To be noted: 100 nM, 60 min recycling, 37 °C, n = 5. How it is done: as §1
For experiment [3], the system named is GIPR-NanoLuc. Nature of the experiment: Rab5-Venus bystander NanoBRET (early endosome), GIPR. Type of experiment: cell-based. To be noted: n = 5. An excerpt:
GLP-1R-NanoLuc was generated in house by polymerase chain reaction (PCR) cloning of the NanoLuciferase sequence from pcDNA3.1-ccdB-NanoLuc (a gift from Prof. Mikko Taipale; Addgene plasmid # 87067) onto the C-terminus end of the SNAP-GLP-1R vector (CisBio), followed by site-directed mutagenesis of the GLP-1R stop codon. GIPR-NanoLuc was subsequently cloned in house by exchanging the GLP-1R for the GIPR in the GLP-1R-NanoLuc construct. KRAS- and Rab5-Venus plasmids were a gift from Prof. Kevin Pfleger, University of Western Australia. The INS-1 832/3 GLP-1R KO and GIPR KO cells were seeded in 12-well plates and co-transfected with 0.2 µg KRAS-Venus and 0.1 µg GLP-1R- or GIPR-NanoLuc, respectively, or 0.5 µg Rab5-Venus and 0.1 µg GLP-1R- or GIPR-NanoLuc, respectively.
All NanoBiT and NanoBRET readings were obtained in a Flexstation 3 plate reader. Briefly, 24 hours after transfection, cells were detached, resuspended in NanoGlo Live Cell Reagent (Promega) with furimazine (1:20 dilution) and seeded into white 96-well half-area plates. […] Readings were normalized to well baseline and then to average vehicle-induced signal to establish the agonist-induced effect. AUCs from response curves were calculated for each agonist concentration and fitted to four-parameter curves using Prism 9 (GraphPad).
Figure 2. Endosomal vs plasma membrane localization of GLP-1R compared with GIPR in beta cells. […]
For orientation: In BRET a luciferase serves as donor, and the signal depends on an acceptor being close.

In experiment [4] the test system is INS-1 832/3 GIPR KO cells. The experiment can be described thus: Insulin secretion assay, GIPR KO cells. Particulars: 100 nM, 11 mM glucose; n = 4. Type of experiment: cell-based, rat. On the procedure:
At the end of the treatments, the supernatant containing the secreted insulin was collected, centrifuged at 1000g for 3 minutes, and transferred to a fresh tube. To determine total insulin content, cells were lysed using KRBH buffer + 1% w/v BSA + 1% v/v Triton X-100 (Sigma). The lysates were sonicated 3 × 10 seconds in a water bath sonicator and centrifuged at 10 000g for 10 minutes, and the supernatants collected. The samples were stored at −20 °C until the insulin concentration was determined using an Insulin Ultra-Sensitive HTRF Assay kit (62IN2PEG, Cisbio, Codolet, France) according to the manufacturer's instructions.
Figure 7. Functional analysis of GLP-1R vs GIPR signaling in beta cells. […] Data are mean ± SEM, compared by paired t tests; *P < .05; ns, nonsignificant.

For experiment [5], the target named is SNAP-tagged human GLP-1R (Homo sapiens, UniProt P43220). The experiment can be described thus: DERET internalization assay, INS-1 832/3 SNAP-GLP-1R cells. Type of experiment: cell-based. Particulars: non-cognate agonist GIP.
Chain of SNAP-tagged human GLP-1R (P43220 24-463): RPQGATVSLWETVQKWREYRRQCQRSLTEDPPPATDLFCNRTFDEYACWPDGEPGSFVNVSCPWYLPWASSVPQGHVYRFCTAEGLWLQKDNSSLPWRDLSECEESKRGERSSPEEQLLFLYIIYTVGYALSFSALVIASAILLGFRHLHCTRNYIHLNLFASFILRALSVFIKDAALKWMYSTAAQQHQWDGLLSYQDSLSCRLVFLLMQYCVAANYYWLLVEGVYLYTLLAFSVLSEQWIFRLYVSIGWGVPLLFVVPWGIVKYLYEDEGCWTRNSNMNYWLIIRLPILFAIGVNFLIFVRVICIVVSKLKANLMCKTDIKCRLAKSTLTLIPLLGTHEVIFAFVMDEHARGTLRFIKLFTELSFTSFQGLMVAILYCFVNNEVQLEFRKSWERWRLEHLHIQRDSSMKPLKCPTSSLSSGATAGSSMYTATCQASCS

On to GIP(1-42), for which the “Internalization of GIPR compared with GLP-1R” value in experiment [1] is on record as “significantly less internalization”. Besides, the “Recycling rate of GIPR compared with GLP-1R” value in experiment [2] is on record as “significantly increased recycling rates”. Also, the “Agonist-mediated redistribution of GIPR to Rab5-positive early endosomes” value in experiment [3] is on record as “virtually absent”. The “Insulin secretion response in GIPR KO cells” value in experiment [4] was “abolished”. In addition, the GLP-1R internalization result in experiment [5] is recorded as “negligible”.
